Measurements: US8802713B2, “3-alkoxy-1-phenylpyrazole derivatives and pesticides” (Kumiai Chemical Industry Co., Ltd., priority 2007, dated 2014)
Where two headings read alike, the source gives them in different places.

Key:
[1] = test system: cotton bollworm; assay: Insecticidal test on cotton bollworm; assay type: in vivo; conditions: Helicoverpa armigera, 144 h
Description: A wettable powder prepared in accordance with Formulation Example 2 was diluted with water to a concentration of an active ingredient of 500 ppm. Cabbage leaves were dipped in this solution and dried in air and then put in a plastic cup having a capacity of 60 mL. Five hatched larvae of cotton bollworm were released in the cup, and the cup was lidded and placed in a thermostatic chamber at 25° C. for 6 days, and the number of dead larvae were assessed for calculation of the mortality by Equation 2. The test was carried out by two series system.

[2] = test system: two-spotted spider mites; assay: Miticidal test on two-spotted spider mites (seedling dip); assay type: in vivo, Tetranvchus urticae; conditions: Glycine max, 312 h, read-out: protective value
Description: A wettable powder prepared in accordance with Formulation Example 2 was diluted with water to a concentration of an active ingredient of 500 ppm. Soybean seedlings which had been inoculated with imago two-spotted spider mites were dipped in the solution and dried in air. The treated soybean seedlings were placed in a thermostatic chamber at 25° C. for 13 days, and the number of live mites were assessed for calculation of the protective value by Equation 1. The test was carried out by one series system.

[3] = test system: diamondback moth; assay: Insecticidal test on diamondback moth; assay type: in vivo; conditions: Plutella xylostella, 144 h
Description: A wettable powder prepared in accordance with Formulation Example 2 was diluted with water to a concentration of an active ingredient of 500 ppm. Cabbage leaves were dipped in this solution and dried in air and then put in a plastic cup having a capacity of 60 mL. 10 second-instar larvae of diamondback moth were released in the cup and the cup was lidded. Then, the cup was placed in a thermostatic chamber at 25° C. for 6 days, and dead moths were counted for calculation of the mortality by Equation 2. The test was carried out by one series system.

[4] = test system: cotton aphid; assay: Insecticidal test on cotton aphid (seedling dip); assay type: in vivo; conditions: Aphis gossypii, 72 h
Description: A wettable powder prepared in accordance with Formulation Example 2 was diluted with water to a concentration of an active ingredient of 500 ppm. Cucumber seedlings which had been inoculated with larvae of cotton aphid were dipped in this solution and dried in air. The treated cucumber seedlings were placed in a thermostatic chamber at 25° C. for 3 days, and the live insects were counted for calculation of the mortality by Equation 2. The test was carried out by one series system.

[5] = test system: brown rice planthopper; assay: Insecticidal test on brown rice planthopper; assay type: in vivo; conditions: 144 h
Description: A wettable powder prepared in accordance with Formulation Example 2 was diluted with water to a concentration of an active ingredient of 500 ppm. Rice sprouts were dipped in this solution and put in a plastic cup having a capacity of 60 mL. Ten third-instar larvae of brown rice planthopper were released in the cup, the cup was lidded and placed in a thermostatic chamber at 25° C. for 6 days, and the number of dead larvae were counted for calculation of the mortality by Equation 2. The test was carried out by one series system.

[6] = 500 ppm active ingredient, soybean seedlings with imago mites dipped, 25° C., 13 days
[7] = 500 ppm active ingredient, cabbage leaves dipped, hatched larvae, 25° C., 6 days, read-out: mortality
[8] = 500 ppm active ingredient, cabbage leaves dipped, second-instar larvae, 25° C., 6 days, read-out: mortality
[9] = 500 ppm active ingredient, cucumber seedlings with larvae of cotton aphid dipped, 25° C., 3 days, read-out: mortality

CC(=O)Nc1cc(OC(F)(F)C(F)OC(F)(F)F)nn1-c1cc([S+]([O-])CC(F)(F)F)c(C)cc1F (centres unmarked) [1-16, 5-acetylamino-1-{2-fluoro-4-methyl-5-(2,2,2-trifluoroethylsulfinyl)phenyl}-3-{1,1,2-trifluoro-2-(trifluoromethoxy)ethoxy}pyrazole]
≥ 90%: mortality at 500 ppm ([1]; in Brassica oleracea) | pest or weed control at 500 ppm [2, 6] | mortality at 500 ppm ([3]; in Brassica oleracea) | mortality at 500 ppm ([4]; in Cucumis sativus)

CC(=O)Nc1cc(OCC(F)(F)C(F)(F)C(F)(F)C(F)(F)F)nn1-c1cc(SCC(F)(F)F)c(C)cc1F [1-77, 5-acetylamino-1-{2-fluoro-4-methyl-5-(2,2,2-trifluoroethylthio)phenyl}-3-(2,2,3,3,4,4,5,5,5-nonafluoropentyloxy)pyrazole]
≥ 90%: mortality at 500 ppm [1, 7] | pest or weed control at 500 ppm [2] | mortality at 500 ppm [3, 8] | mortality at 500 ppm [5]

CC(=O)Nc1cc(OCC(F)(F)C(F)(F)C(F)(F)C(F)(F)F)nn1-c1cc([S+]([O-])CC(F)(F)F)c(C)cc1F (centres unmarked) [1-78, 5-acetylamino-1-{2-fluoro-4-methyl-5-(2,2,2-trifluoroethylsulfinyl)phenyl}-3-(2,2,3,3,4,4,5,5,5-nonafluoropentyloxy)pyrazole]
≥ 90%: mortality at 500 ppm [1, 7] | pest or weed control at 500 ppm [2] | mortality at 500 ppm [3, 8] | mortality at 500 ppm [5]

CC(=O)Nc1cc(OCC(F)(F)C(F)(F)F)nn1-c1cc([S+]([O-])CC(F)(F)Cl)c(C)cc1F (centres unmarked) [1-178, 5-acetylamino-1-{2-fluoro-4-methyl-5-(2-chloro-2,2-difluoroethylsulfinyl)phenyl}-3-(2,2,3,3,3-pentafluoropropoxy)pyrazole]
≥ 90%: mortality at 500 ppm [1, 7] | mortality at 500 ppm [3, 8] | mortality at 500 ppm [5]

CNc1cc(OC(F)(F)C(F)C(F)(F)F)nn1-c1cc([S+]([O-])CC(F)(F)F)c(C)cc1F (centres unmarked) [1-187, 1-{2-fluoro-4-methyl-5-(2,2,2-trifluoroethylsulfinyl)phenyl}-3-(1,1,2,3,3,3-hexafluoropropoxy)-5-methylaminopyrazole]
≥ 90%: mortality at 500 ppm [1, 7] | mortality at 500 ppm [3, 8] | mortality at 500 ppm [4, 9] | mortality at 500 ppm [5]

CC(=O)Nc1cc(OC(F)(F)C(F)(F)C(F)(F)F)nn1-c1cc([S+]([O-])CC(F)(F)F)c(C)cc1F (centres unmarked) [1-268, 5-acetylamino-1-{2-fluoro-4-methyl-5-(2,2,2-trifluoroethylsulfinyl)phenyl}-3-(1,1,2,2,3,3,3-heptafluoropropoxy)pyrazole]
≥ 90%: mortality at 500 ppm [1, 7] | pest or weed control at 500 ppm [2] | mortality at 500 ppm [3, 8]

C#CCNc1cc(OC(F)(F)C(F)OC(F)(F)C(F)(F)C(F)(F)F)nn1-c1cc([S+]([O-])CC(F)(F)F)c(C)cc1F (centres unmarked) [1-358, 1-{2-fluoro-4-methyl-5-(2,2,2-trifluoroethylsulfinyl)phenyl}-5-(2-propynylamino)-3-{1,1,2-trifluoro-2-(heptafluoropropoxy)ethoxy}pyrazole]
≥ 90%: mortality at 500 ppm [1, 7] | mortality at 500 ppm [3, 8]

CC(=O)Nc1cc(OC(F)(F)C(F)OC(F)(F)C(F)(F)C(F)(F)F)nn1-c1cc(SCC(F)(F)F)c(C)cc1F (centres unmarked) [1-370, 5-acetylamino-1-{2-fluoro-4-methyl-5-(2,2,2-trifluoroethylthio)phenyl}-3-{1,1,2-trifluoro-2-(heptafluoropropoxy)ethoxy}pyrazole]
≥ 90%: mortality at 500 ppm [1, 7] | pest or weed control at 500 ppm [2] | mortality at 500 ppm [3, 8]

CC(=O)Nc1cc(OC(F)(F)C(F)OC(F)(F)C(F)(F)C(F)(F)F)nn1-c1cc([S+]([O-])CC(F)(F)F)c(C)cc1F (centres unmarked) [1-371, 5-acetylamino-1-{2-fluoro-4-methyl-5-(2,2,2-trifluoroethylsulfinyl)phenyl}-3-{1,1,2-trifluoro-2-(heptafluoropropoxy)ethoxy}pyrazole]
≥ 90%: mortality at 500 ppm [1, 7] | pest or weed control at 500 ppm [2] | mortality at 500 ppm [3, 8]

CC(=O)Nc1cc(OCC(F)(F)OC(F)(F)C(F)(F)OC(F)(F)F)nn1-c1cc(SCC(F)(F)F)c(C)cc1F [1-374, 5-acetylamino-3-[2,2-difluoro-2-{2-trifluoromethoxy-(1,1,2,2-tetrafluoroethoxy)}ethoxy]-1-{2-fluoro-4-methyl-5-(2,2,2-trifluoroethylthio)phenyl}pyrazole]
≥ 90%: mortality at 500 ppm ([1]; in Brassica oleracea) | pest or weed control at 500 ppm [2, 6] | mortality at 500 ppm ([3]; in Brassica oleracea)

CC(=O)Nc1cc(OCC(F)(F)OC(F)(F)C(F)(F)OC(F)(F)F)nn1-c1cc([S+]([O-])CC(F)(F)F)c(C)cc1F (centres unmarked) [1-375, 5-acetylamino-3-[2,2-difluoro-2-{2-trifluoromethoxy-(1,1,2,2-tetrafluoroethoxy)}ethoxy]-1-{2-fluoro-4-methyl-5-(2,2,2-trifluoroethylsulfinyl)phenyl}pyrazole]
≥ 90%: mortality at 500 ppm ([1]; in Brassica oleracea) | pest or weed control at 500 ppm [2, 6] | mortality at 500 ppm ([3]; in Brassica oleracea)

CC(=O)Nc1cc(OC(F)(F)C(F)(F)C(F)(F)C(F)(F)C(F)(F)F)nn1-c1cc(SCC(F)(F)F)c(C)cc1F [1-488, 5-acetylamino-1-{2-fluoro-4-methyl-5-(2,2,2-trifluoroethylthio)phenyl}-3-(1,1,2,2,3,3,4,4,5,5,5-undecafluoropentyloxy)pyrazole]
≥ 90%: mortality at 500 ppm [1, 7] | mortality at 500 ppm [3, 8]

CC(=O)Nc1cc(OC(F)(F)C(F)(F)C(F)(F)C(F)(F)C(F)(F)F)nn1-c1cc([S+]([O-])CC(F)(F)F)c(C)cc1F (centres unmarked) [1-489, 5-acetylamino-1-{2-fluoro-4-methyl-5-(2,2,2-trifluoroethylsulfinyl)phenyl}-3-(1,1,2,2,3,3,4,4,5,5,5-undecafluoropentyloxy)pyrazole]
≥ 90%: mortality at 500 ppm [1, 7] | pest or weed control at 500 ppm [2] | mortality at 500 ppm [3, 8]

CNc1cc(OC(F)(F)C(F)(F)C(F)(F)C(F)(F)C(F)(F)F)nn1-c1cc(SCC(F)(F)F)c(C)cc1F [1-524, 1-{2-fluoro-4-methyl-5-(2,2,2-trifluoroethylthio)phenyl}-5-methylamino-3-(1,1,2,2,3,3,4,4,5,5,5-undecafluoropentyloxy)pyrazole]
≥ 90%: mortality at 500 ppm [1, 7] | pest or weed control at 500 ppm [2] | mortality at 500 ppm [3, 8] | mortality at 500 ppm [5]

CNc1cc(OC(F)(F)C(F)(F)C(F)(F)C(F)(F)C(F)(F)F)nn1-c1cc([S+]([O-])CC(F)(F)F)c(C)cc1F (centres unmarked) [1-525, 1-{2-fluoro-4-methyl-5-(2,2,2-trifluoroethylsulfinyl)phenyl}-5-methylamino-3-(1,1,2,2,3,3,4,4,5,5,5-undecafluoropentyloxy)pyrazole]
≥ 90%: mortality at 500 ppm [1, 7] | pest or weed control at 500 ppm [2] | mortality at 500 ppm [3, 8] | mortality at 500 ppm [5]

Cc1cc(F)c(-n2nc(OC(F)(F)C(F)OC(F)(F)F)cc2CF)cc1SCC(F)(F)F (centres unmarked) [1-1579, 1-{2-fluoro-4-methyl-5-(2,2,2-trifluoroethylthio)phenyl}-5-fluoromethyl-3-{1,1,2-trifluoro-2-(trifluoromethoxy)ethoxy}pyrazole]
≥ 90%: pest or weed control at 500 ppm [2, 6] | mortality at 500 ppm ([3]; in Brassica oleracea) | mortality at 500 ppm ([4]; in Cucumis sativus) | mortality at 500 ppm [5]

Cc1cc(F)c(-n2nc(OCC(F)(F)C(F)(F)C(F)(F)F)cc2NC=O)cc1[S+]([O-])CC(F)(F)F (centres unmarked) [1-1594, 1-{2-fluoro-4-methyl-5-(2,2,2-trifluoroethylsulfinyl)phenyl}-5-formylamino-3-(2,2,3,3,4,4,4-heptafluorobutoxy)pyrazole]
≥ 90%: mortality at 500 ppm [1, 7] | mortality at 500 ppm [3, 8] | mortality at 500 ppm [4, 9]
